Counter-ions that a name gives are not always drawn.
Biological target: T1, Spns2 (Spinster homolog 2) (Mus musculus, UniProt Q91VM4)
T1 sequence (Q91VM4 1-549): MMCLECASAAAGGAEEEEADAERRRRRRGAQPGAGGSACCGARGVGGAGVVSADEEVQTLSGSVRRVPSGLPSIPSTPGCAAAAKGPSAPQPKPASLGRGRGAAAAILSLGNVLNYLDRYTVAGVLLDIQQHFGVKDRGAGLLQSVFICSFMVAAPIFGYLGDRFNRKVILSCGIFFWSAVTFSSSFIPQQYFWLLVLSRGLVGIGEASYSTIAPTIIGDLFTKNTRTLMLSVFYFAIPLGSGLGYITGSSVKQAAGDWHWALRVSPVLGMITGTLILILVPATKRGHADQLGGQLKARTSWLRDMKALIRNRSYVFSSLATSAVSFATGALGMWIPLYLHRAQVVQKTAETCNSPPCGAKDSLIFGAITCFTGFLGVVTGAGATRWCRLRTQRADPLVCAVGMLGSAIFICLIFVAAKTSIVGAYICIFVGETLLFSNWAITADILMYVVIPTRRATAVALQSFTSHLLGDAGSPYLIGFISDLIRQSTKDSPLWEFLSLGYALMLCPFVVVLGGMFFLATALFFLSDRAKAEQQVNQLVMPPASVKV
Experiment: S1P release assay in mouse Spns2-transfected HeLa cells, % inhibition at […]
Type: cell-based

inhibition at 0.3 µM: 50 ± 4%
SMILES: CCCCCCCCCc1ccc2oc(NC[C@H]3CCNC3)nc2c1 [35p, (S)-5-nonyl-N-(pyrrolidin-3-ylmethyl)benzo[d]oxazol-2-amine hydrochloride]
